Assay results as given in PubChem BioAssay AID330 (DTP/NCI, 2004).
Several values for one entry are separate records, joined by “and”; a condition that tells them apart may be missing. Equal values may be shown once. Toxic doses and inconclusive results are not listed. Peptide text beside a SMILES is read from it.

Test system: P388 leukemia ip, CD2F1 mice, survival T/C
Assay: NCI In Vivo Anticancer Drug Screen. Data for tumor model P388 Leukemia (intraperitoneal) in CD2F1 (CDF1) mice
Settings: endpoint: median survival time, higher = longer survival
Method in brief: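 Mice carrying the transplanted tumor received test compound or vehicle. Survival was recorded in each group, and the value is the treated-group measurement divided by that of the vehicle-treated control group.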

[1] = dose: 50.0 mg/kg/injection, schedule: Q01DX009 (ip), vehicle: saline
[2] = dose: 100.0 mg/kg/injection, schedule: Q01DX009 (ip), vehicle: saline
[3] = dose: 200.0 mg/kg/injection, schedule: Q01DX009 (ip), vehicle: saline
[4] = dose: 12.5 mg/kg/injection, schedule: Q01DX009 (ip), vehicle: saline
[5] = dose: 25.0 mg/kg/injection, schedule: Q01DX009 (ip), vehicle: saline
[6] = dose: 25.0 mg/kg/injection, schedule: Q01DX009 (ip), vehicle: Klucel (hydroxypropylcellulose) (HPC)
[7] = dose: 50.0 mg/kg/injection, schedule: Q01DX009 (ip), vehicle: Klucel (hydroxypropylcellulose) (HPC)
[8] = dose: 100.0 mg/kg/injection, schedule: Q01DX009 (ip), vehicle: Klucel (hydroxypropylcellulose) (HPC)
[9] = dose: 200.0 mg/kg/injection, schedule: Q01DX009 (ip), vehicle: Klucel (hydroxypropylcellulose) (HPC)
[10] = dose: 50.0 mg/kg/injection, schedule: Q01DX005 (ip), vehicle: saline with Tween-80
[11] = dose: 100.0 mg/kg/injection, schedule: Q01DX005 (ip), vehicle: saline with Tween-80
[12] = dose: 200.0 mg/kg/injection, schedule: Q01DX005 (ip), vehicle: saline with Tween-80
[13] = dose: 25.0 mg/kg/injection, schedule: Q01DX009 (ip), vehicle: saline with Tween-80
[14] = dose: 50.0 mg/kg/injection, schedule: Q01DX009 (ip), vehicle: saline with Tween-80
[15] = dose: 100.0 mg/kg/injection, schedule: Q01DX001 (ip), vehicle: saline
[16] = dose: 200.0 mg/kg/injection, schedule: Q01DX001 (ip), vehicle: saline
[17] = dose: 50.0 mg/kg/injection, schedule: Q01DX005 (ip), vehicle: Klucel (hydroxypropylcellulose) (HPC)
[18] = dose: 100.0 mg/kg/injection, schedule: Q01DX005 (ip), vehicle: Klucel (hydroxypropylcellulose) (HPC)
[19] = dose: 200.0 mg/kg/injection, schedule: Q01DX005 (ip), vehicle: Klucel (hydroxypropylcellulose) (HPC)
[20] = dose: 100.0 mg/kg/injection, schedule: Q01DX009 (ip), vehicle: saline with Tween-80
[21] = dose: 200.0 mg/kg/injection, schedule: Q01DX009 (ip), vehicle: saline with Tween-80
[22] = dose: 12.5 mg/kg/injection, schedule: Q01DX009 (ip), vehicle: Klucel (hydroxypropylcellulose) (HPC)

In the case of `O=C(O)c1ccc2c(=O)c(C(=O)O)c[nH]c2c1`, the T/C [1] was 100 % of control, the T/C [2] was 96 % of control and the T/C [3] was 103 % of control.
`COC1=Nc2ccccc2N2CCN=C12` was tested, and the T/C [4] was 86 % of control, the T/C [5] was 100 % of control and the T/C [1] was 100 % of control.
`Cc1cc2nc3ccccc3[nH]c2c2ccc(=O)cc12` was tested, and the T/C (dose: 100.0 mg/kg/injection, schedule: Q04DX002 (ip), vehicle: saline with Tween-80) was 99 % of control, the T/C (dose: 200.0 mg/kg/injection, schedule: Q04DX002 (ip), vehicle: saline with Tween-80) was 98 % of control and the T/C (dose: 400.0 mg/kg/injection, schedule: Q04DX002 (ip), vehicle: saline with Tween-80) was 94 % of control.
`O=C(O)C[P+](Cc1ccccc1)(c1ccccc1)c1ccccc1` was tested, and the T/C [6] was 97 % of control, the T/C [7] was 102 % of control and 113 % of control and the T/C [8] was 101 % of control and 103 % of control. For the same compound, the T/C [9] was 95 % of control.
With `COC(=O)C1=CC(=O)N2CCN=C2S1` the T/C [10] was 103 % of control, the T/C [11] was 100 % of control and the T/C [12] was 90 % of control.
In the case of `CC(C(=O)O)S(=O)(=O)C(C)C(=O)O` (centres undefined), the T/C (dose: 100.0 mg/kg/injection, schedule: Q04DX002 (ip), vehicle: saline) was 98 % of control and the T/C (dose: 200.0 mg/kg/injection, schedule: Q04DX002 (ip), vehicle: saline) was 91 % of control.
In the case of `CCC(C)N(CCCOC(=O)c1ccc(N)cc1)C(C)CC` (centres undefined), the T/C (dose: 12.5 mg/kg/injection, schedule: Q01DX009 (ip), vehicle: saline with Tween-80) was 109 % of control, the T/C (dose: 12.5 mg/kg/injection, schedule: Q04DX003 (ip), vehicle: saline) was 100 % of control and the T/C [13] was 100 % of control. For the same compound, the T/C (dose: 25.0 mg/kg/injection, schedule: Q04DX003 (ip), vehicle: saline) was 91 % of control, the T/C [14] was 104 % of control and the T/C (dose: 50.0 mg/kg/injection, schedule: Q04DX003 (ip), vehicle: saline) was 91 % of control.
In the case of `CCCCCCCCCCC(C)c1ccc(S(=O)(=O)O)cc1` (centres undefined), the T/C (dose: 50.0 mg/kg/injection, schedule: Q01DX001 (ip), vehicle: saline) was 100 % of control, the T/C [15] was 90 % of control and the T/C [16] was 95 % of control.
`Cc1ccc(S(=O)(=O)[n+]2ccccc2)cc1` was tested, and the T/C [15] was 104 % of control, the T/C [16] was 100 % of control and the T/C (dose: 400.0 mg/kg/injection, schedule: Q01DX001 (ip), vehicle: saline) was 100 % of control.
`CC(=O)SCC(C)C(=O)N1CCCC1C(=O)NC(Cc1ccccc1)C(=O)O` (centres undefined) was tested, and the T/C [17] was 110 % of control, the T/C [18] was 98 % of control and the T/C [19] was 104 % of control.
In the case of `CCCCCCC(=O)/C=C/c1cc(OC)cc(OC)c1`, the T/C [14] was 96 % of control, the T/C [20] was 103 % of control and the T/C [21] was 91 % of control.
With `COC(=O)C1OC(SCCN)C(O)C(O)C1O` (centres undefined) the T/C (dose: 50.0 mg/kg/injection, schedule: Q01DX009 (ip), vehicle: water) was 100 % of control, the T/C (dose: 100.0 mg/kg/injection, schedule: Q01DX009 (ip), vehicle: water) was 102 % of control and the T/C (dose: 200.0 mg/kg/injection, schedule: Q01DX009 (ip), vehicle: water) was 91 % of control.
In the case of `O=C1CCCC1C(=O)c1ccccc1.O=C1CCCC1C(=O)c1ccccc1.[Cu]` (centres undefined), the T/C [22] was 103 % of control, the T/C [6] was 100 % of control and the T/C [7] was 100 % of control and 109 % of control. For the same compound, the T/C [8] was 116 % of control.
For `O=C1c2ccccc2C2(c3ccc(O)cc3)c3ccccc3Oc3cccc1c32` (centres undefined), the T/C [10] was 90 % of control, the T/C [11] was 92 % of control and the T/C [12] was 95 % of control.
With `Cc1ccc(Br)c(C(O)(C(F)(F)F)C(F)(F)F)c1C` the T/C [7] was 107 % of control and the T/C [8] was 106 % of control.
`CCN(C(=S)NCCCOC)c1ccc(C)cc1` was tested, and the T/C [7] was 97 % of control, the T/C [8] was 86 % of control and the T/C [9] was 87 % of control.
`CC1=CSC2=NCCCCN12` was tested, and the T/C (dose: 6.25 mg/kg/injection, schedule: Q01DX009 (ip), vehicle: saline) was 91 % of control, the T/C [4] was 93 % of control and the T/C [5] was 92 % of control.
With `CC(=O)O/C=C(/C=C/OC(C)=O)C(C/C=C(\C)C#CC=C(C)C)OC(C)=O` (centres undefined) the T/C (dose: 5.31 mg/kg/injection, schedule: Q01DX005 (ip), vehicle: saline with Tween-80) was 98 % of control, the T/C (dose: 10.62 mg/kg/injection, schedule: Q01DX005 (ip), vehicle: saline with Tween-80) was 103 % of control and the T/C (dose: 21.25 mg/kg/injection, schedule: Q01DX005 (ip), vehicle: saline with Tween-80) was 103 % of control and 94 % of control. For the same compound, the T/C (dose: 42.5 mg/kg/injection, schedule: Q01DX005 (ip), vehicle: saline with Tween-80) was 87 % of control.
In the case of `Cc1cc(C(=O)NN)no1`, the T/C [1] was 99 % of control and the T/C [2] was 100 % of control.
With `O=c1c([N+](=O)[O-])c[nH]c2ccccc12` the T/C (dose: 25.0 mg/kg/injection, schedule: Q01DX009 (ip), vehicle: distilled water + Tween-80) was 92 % of control, the T/C (dose: 50.0 mg/kg/injection, schedule: Q01DX009 (ip), vehicle: distilled water + Tween-80) was 87 % of control and the T/C (dose: 100.0 mg/kg/injection, schedule: Q01DX009 (ip), vehicle: distilled water + Tween-80) was 108 % of control. For the same compound, the T/C (dose: 200.0 mg/kg/injection, schedule: Q01DX009 (ip), vehicle: distilled water + Tween-80) was 93 % of control.
For `Cc1cccc(NC(=O)NC2CCCCC2)c1`, the T/C [1] was 103 % of control, the T/C [2] was 102 % of control and the T/C [3] was 93 % of control.
For `O=C(CSC(SCC(=O)Nc1ccccc1)c1ccccc1)Nc1ccccc1`, the T/C (dose: 60.0 mg/kg/injection, schedule: Q01DX005 (ip), vehicle: Klucel (hydroxypropylcellulose) (HPC)) was 101 % of control and the T/C (dose: 120.0 mg/kg/injection, schedule: Q01DX005 (ip), vehicle: Klucel (hydroxypropylcellulose) (HPC)) was 86 % of control.
In the case of `O=C1C=CC(=O)c2cc(Cl)c(Cl)cc21`, the T/C (dose: 4.12 mg/kg/injection, schedule: Q01DX009 (ip), vehicle: saline with Tween-80) was 109 % of control, the T/C (dose: 6.25 mg/kg/injection, schedule: Q01DX009 (ip), vehicle: saline with Tween-80) was 113 % of control and the T/C (dose: 6.25 mg/kg/injection, schedule: Q04DX003 (ip), vehicle: saline with Tween-80) was 91 % of control. The T/C (dose: 12.5 mg/kg/injection, schedule: Q04DX003 (ip), vehicle: saline with Tween-80) was 91 % of control.
With `Cc1c2cc[n+](C)c(C)c2cc2c1[nH]c1ccc(O)cc12` the T/C (dose: 10.0 mg/kg/injection, schedule: Q04DX002 (ip), vehicle: water) was 157 % of control, the T/C (dose: 20.0 mg/kg/injection, schedule: Q04DX002 (ip), vehicle: water) was 162 % of control and the T/C (dose: 40.0 mg/kg/injection, schedule: Q04DX002 (ip), vehicle: water) was 89 % of control. The T/C (dose: 50.0 mg/kg/injection, schedule: Q04DX002 (ip), vehicle: water) was 88 % of control.
In the case of `O=C(Cl)c1ccccc1Sc1ccccc1`, the T/C [13] was 95 % of control, the T/C (dose: 25.0 mg/kg/injection, schedule: Q04DX003 (ip), vehicle: saline with Tween-80) was 100 % of control and the T/C [14] was 90 % of control. For the same compound, the T/C (dose: 50.0 mg/kg/injection, schedule: Q04DX003 (ip), vehicle: saline with Tween-80) was 100 % of control, the T/C [20] was 100 % of control and the T/C (dose: 100.0 mg/kg/injection, schedule: Q04DX003 (ip), vehicle: saline with Tween-80) was 100 % of control.
`C1CCC([Se][Se]C2CCCC2)C1` was tested, and the T/C [22] was 104 % of control, the T/C [6] was 110 % of control and the T/C [7] was 99 % of control and 101 % of control.
In the case of `COC1/C=C/OC2(C)Oc3c(C)c(O)c4c(O)c(c(/C=N/N5C(C)CN(Cc6ccccc6O)CC5C)c(O)c4c3C2=O)NC(=O)/C(C)=C\C=C\C(C)C(O)C(C)C(O)C(C)C(OC(C)=O)C1C` (centres undefined), the T/C [14] was 92 % of control, the T/C [20] was 96 % of control and the T/C [21] was 91 % of control.
For `CN(C)C(=O)c1ccc([N+](=O)[O-])cc1`, the T/C [13] was 119 % of control, the T/C [14] was 98 % of control and the T/C [20] was 96 % of control. The T/C [21] was 104 % of control.
In the case of `CCCCCCCCCCCC[N+]1([O-])CCCCCC1`, the T/C [4] was 100 % of control, the T/C [5] was 100 % of control and the T/C [1] was 107 % of control and 94 % of control.
For `COC(=O)C(Cc1ccc(O)cc1)NC(=O)C(Cc1ccccc1)NC(C)=O` (stereo not drawn) (Ac-Phe-Tyr-OMe; configuration not given here), the T/C [17] was 92 % of control, the T/C [18] was 97 % of control and the T/C [19] was 88 % of control.
